Source: US5631133A, “Transition in transcriptional activation by intracellular hormone receptors at the tumor stage of dermal fibrosarcoma development” (The Regents of the University of California, priority 1995, dated 1997)

Experiments:
[1] = test system: GR and AP-1 (composite element G(26)A); experiment: Transient transfection of G(26)A3-Luc composite GRE luciferase reporter, hormone responsiveness; format: cell-based, mouse; details: 100 nM dexamethasone, 24 h
Description: Where indicated, the expression vector 6RGR was co-transfected.
In view of the observed changes in GR and AP-1 activities, we next tested a composite element that requires both factors for transcriptional activation. The synthetic composite element, G(26)A, which resembles a sequence in the glucocorticoid regulatory region of the glutamine synthetase gene (Zhang and Young (1991) J. Biol. Chem., 266:24332-24338), contains the TAT GRE sequence linked through a 15 bp spacer to the collagenase AP-1 sequence. In this configuration, neither GR alone nor AP-1 alone (either Jun homodimers or Jun-Fos heterodimers) activates a linked reporter gene in transfected embryonal earcinoma F9 cells (which express low levels of endogenous GR and AP-1 factors), whereas co-transfection of GR and AP-1 (Jun-Jun or Jun-Fos) produces a strong synergistic activation upon hormone addition. We transfected a luciferase reporter construct containing three copies of the G(26)A composite element, G(26)A3-Luc, into cell cultures representing each stage of the fibrosarcoma progression.

[2] = target: endogenous glucocorticoid receptor (GR) (Mus musculus, UniProt P06537)
Description: Cultures were established from skin and tumor tissues of several independent BPV transgenic mice (Sippola-Thiele et al., 1989), and maintained in Dulbecco's modified Eagle's medium (DMEM-21, high glucose formulation; Gibco-BRL) containing 8% fetal calf serum (Hyclone). Cells were propagated for no longer than five weeks and always used at low passage number (1-30). Several cultures were tested from each stage of the tumorigenic process: normal fibroblasts, NF (23784, 40950); mild fibromatosis, MF (39614, 14249, 27877); aggressive fibromatosis, AF (BPV7, BPV3, BPV21); fibrosarcoma, FS (BPV1, BPV22, BPV2, BPV11).
Cells were plated at least 12 h before transfeetion at ~0.5×10^6 cells per 6 cm dish. Reporter gene DNA (2 μg), together with the 6RZ (100 ng) as an internal control for efficiency of transfection, were introduced into cells using the DEAE-dextran method (Ausubel). Where indicated, the expression vector 6RGR was co-transfected. After exposure to the DNA/DEAE-dextran mixture, the cells were incubated for 24 h in fresh medium containing charcoal-strippedserum (Miesfeld et al., 1987) with or without 100 nM dexamethasone (Sigma). Cells were harvested and the luciferase activity measured according to the instructions of the manufacturer (Promega) and normalized for β-galactosidase expression as previously described (Miner and Yamamoto (1992) Genes Dev., 6:2491-2501). Each experiment was repeated at least six times and the results averaged.
To monitor the activity of the endogenous glucocorticoid receptor (GR) during dermal fibroblast tumorigenesis, we performed transient transfection assays using low passage primary cell lines representative of the four stages in this multistep pathway: normal dermal fibroblasts, NF; mild fibromatosis, MF; aggressive fibromatosis, AF; fibrosarcoma, FS. […] We first measured the hormone responsiveness of a reporter construct, TAT3-Luc, containing three tandem simple GREs derived from the tyrosine aminotransferase (TAT) gene (Jantzen et al., 1987).

[3] = target: glucocorticoid receptor (GR) (Mus musculus, UniProt P06537); details: NF, MF, AF and FS cells; 500 nM dexamethasone, 2 h
Chain of glucocorticoid receptor (GR) (P06537 whole entry): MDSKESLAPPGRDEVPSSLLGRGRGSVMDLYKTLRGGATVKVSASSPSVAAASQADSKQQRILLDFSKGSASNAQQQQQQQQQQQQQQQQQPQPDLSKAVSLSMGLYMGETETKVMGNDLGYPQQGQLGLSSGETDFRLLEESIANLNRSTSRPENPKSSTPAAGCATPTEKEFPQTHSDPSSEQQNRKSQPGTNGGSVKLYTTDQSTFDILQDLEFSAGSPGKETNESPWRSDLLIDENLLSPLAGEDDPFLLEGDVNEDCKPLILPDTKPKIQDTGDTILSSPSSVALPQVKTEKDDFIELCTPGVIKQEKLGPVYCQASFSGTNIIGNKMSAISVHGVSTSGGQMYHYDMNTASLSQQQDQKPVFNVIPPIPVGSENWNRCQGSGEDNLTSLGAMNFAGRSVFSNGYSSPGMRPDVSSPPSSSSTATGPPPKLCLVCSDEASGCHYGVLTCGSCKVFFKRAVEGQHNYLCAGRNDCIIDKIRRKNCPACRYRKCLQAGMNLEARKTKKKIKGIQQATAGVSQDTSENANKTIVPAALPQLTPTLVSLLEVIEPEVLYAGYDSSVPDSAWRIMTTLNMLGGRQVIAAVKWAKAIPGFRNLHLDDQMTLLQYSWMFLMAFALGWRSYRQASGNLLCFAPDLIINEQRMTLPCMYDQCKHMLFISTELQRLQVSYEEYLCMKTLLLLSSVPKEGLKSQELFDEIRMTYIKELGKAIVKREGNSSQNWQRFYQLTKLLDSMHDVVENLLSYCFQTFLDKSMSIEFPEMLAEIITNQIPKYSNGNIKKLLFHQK
Description: Cells were grown in 24-well plates (Corning). The medium was changed to serum-free, phenol-red free DMEM, supplemented with insulin (5 μg/ml) and transferrin (10 μg/ml), with or without 500 nM dexamethasone for 2 h. After three washes with ice-cold PBS, cells were fixed with cold (-20° C.) methanol for 10 min, and then washed with TBS. Nonspecific binding sites were blocked in blocking buffer (BB) (TBS, 1% Triton, 1% glycine, 3% bovine serum albumin and 10% normal goat serum). […] Diaminobenzidine (Sigma) was used as a substrate for the peroxidase reaction.
To assesss the nature of the differential GR activity, we examined the ligand-dependent nuclear translocation of GR in normal dermal fibroblasts and the three progressive conditions, MF, AF and FS.

Chain of endogenous glucocorticoid receptor (GR) (P06537 whole entry): as above

## C[C@@H]1C[C@H]2[C@@H]3CCC4=CC(=O)C=C[C@]4(C)[C@@]3(F)[C@@H](O)C[C@]2(C)[C@@]1(O)C(=O)CO [dexamethasone]
[1]; AF cells
  hormonal induction through the G(26)A element: only a modest hormonal induction
[1]; tumor (FS) cells
  induction of luciferase activity (G(26)A3-Luc): dramatically induced
[2]; FS (fibrosarcoma) cells, 100 nM dexamethasone, 24 h
  hormonal induction of luciferase activity (TAT3-Luc): strong hormonal induction
[2]; NF, MF or AF cell lines, 100 nM dexamethasone, 24 h
  stimulation of basal luciferase activity (TAT3-Luc): only a modest stimulation
[2]; nNF, dermal fibroblasts from non-transgenic mice
  transcriptional response (TAT3-Luc): low transcriptional response
[3]
  nuclear translocation of GR: efficiently translocated to the nucleus
